These results are taken from patent publication US20040229772A1, “Peptides responsive to antibodies against consensus peptide of the CS4-CFA/I family proteins” (priority 1996, published 2004).

Test [1] deals with antibodies raised to the consensus peptide. Put plainly: ELISA of 8-mer peptides with rabbit antibodies. The format is binding. The note with it: for interaction of peptides with the antibodies raised to the consensus peptide: rabbit antibodies raised to consensus peptide SEQ ID NO:1; for reactivity of 8-mer peptides with antibodies from the rabbits: rabbit antibodies raised to consensus peptide SEQ ID NO:1, biotin-SGSG-peptide on streptavidin. As for the experimental part: (§1) Blocks of pins for cleavable syntheses were obtained from Chiron Mimotopes U.S. Peptide synthesis was carried out according to the manufacturer's instructions using Opfp-derivatized amino acids. Peptides of length 8 with 7 overlap were manufactured in order to locate all linear epitopes in the sequence with a highest redundancy. […] Peptides were cleaved from the pins using 0.1 M phosphate buffer, pH 8.0, containing 40% acetonitrile. Two peptides were made and sacrificed for amino acid analysis as proof of peptide purity. A dinitrophenol (DNP) pin was included so that the efficiency of the cleavage could be monitored spectrophotometrically.
(§2) For blocking, a composition containing 5% nonfat dry milk in PBS+0.2% sodium azide was used. Stock streptavidin (Calbiochem Corp., La Jolla, Calif.) at 1 mg/ml in water was kept frozen in aliquots for up to several months. On the day of use, the stock streptavidin was diluted in phosphate buffered saline (PBS) to provide a concentration of 5 μg/ml streptavidin. Goat F(ab′)2 anti-mouse, anti-rabbit and anti-human sera were labeled with alkaline phosphatase (Biosource, International, Camarillo, Calif.).
(§3) Streptavidin was plated at 5 μg/ml, 50 μl per well, and incubated over night at 4° C. Plates were then washed by hand (Nunc Immunowash 12 hand plate washer. Fisher Scientific, Pittsburgh, Pa.) three times with PBS/0.1% TWEEN 20™. Peptides were then diluted to 10 μg/ml in PBS and plated at 50-μl/well. After incubation for one hour at room temperature followed by washing, the peptides were incubated with sera diluted in blocker at appropriate concentrations (5% nonfat dry milk) for 2 hours at room temperature. After washing the wells, 50 μl of phosphatase-labeled anti-serum IgG diluted 1:1000 in blocker was added to each well and was allowed to incubate at room temperature for 1 hour. The plates were washed. The 100 μl of PNDP (p-nitrophenylphosphate) substrate, prepared according to the manufacturer's instructions, was added to each well. Results were read at 5, 15 and 60 minutes using a microtiter plate reader (UVmax™, Moelcular Devices, Sunnyvale, Calif.).
Antibodies from the rabbits were then tested against the specific 8-mer peptides obtained from SEQ ID NO:1 in the manner disclosed above to determine the binding sites of the antibodies in the sera with the consensus peptide.
(In general: ELISA stands for enzyme-linked immunosorbent assay.)

The subject of test [2] is Antibody to 0166 lower. Put plainly: ELISA of 8-mer peptides (pins) with rabbit serum. The test is classed as binding. As for the experimental part:
as §1, §2, §3
(§4) Partially to fully purified colonization factor (40% to 100% pure) was run on SDS-PAGE gel (5-15 μg/lane of 10 comb gel (precast 10 comb, 1 mm thickness, Tris-tricene gel from Novex, San Diego, Calif.), for primary immunization run 9 lanes for each rabbit (45-135 μg CF protein with ½ the amount used in the primary immunization used as a booster). The gel was stained with 0.5% COOMASSIE BLUE™ (BioRad, Richmond, Calif.) in water for 1 hour, then destained with multiple changes of water for 60-90 minutes. The colonization factor bands were excised with a scalpel and the excess gel trimmed. The bands were stored at −20° C. until use.
(§5) After removal from freezer, the gel slices were transferred to a glass tissue homogenizer using a teflon pestle with grooves at the tip. The slices were ground with 0.3 ml phosphate buffered saline (PBS). The drill was run to homogenize the gel for 30 to 45 seconds. (In the instant case, a pestle with a shaft of steel was used which allowed placement of the pestle into the chuck of the hand-held drill.)
(§6) The homogenate was transferred to 16 mm×150 mm test tubes with disposable plastic transfer pipet. The pestle and homogenizer vessel was rinsed repeatedly with PBS and the contents transferred to the 16×150 test tube until a volume of 1.2 ml was obtained.
(§7) The sample obtained above was placed in a vortex mixer and vortexed on high. Freund's adjuvant 1.2 ml was added. (Complete Freund's was used for the primary immunization, while incomplete Freund's was used for the boost.) The composition was vortexed until a thick emulsion of almost a butter consistency was obtained (12-20 minutes).
(§8) A preimmune serum was obtained on all animals, which were then immunized with the 1 ml of the emulsion subcutaneously at 4-6 spots on the shoulders and rump. The animals were boosted three weeks later, then bleed 10 days after the booster shots. […]

Test [3] deals with Antibody to CS17. Put plainly: ELISA of 8-mer peptides (pins) with rabbit serum. The note with it: a listed pin number means recognized. The format is binding. As for the experimental part: as §1, §2, §3, §4, §5, §6, §7, §8
For test [4], the system named is Antibody to 0166 upper. Briefly: ELISA of 8-mer peptides (pins) with rabbit serum. The test is classed as binding. As for the experimental part: as §1, §2, §3, §4, §5, §6, §7, §8
Test [5] has as its system Antibody to CS1. Put plainly: ELISA of 8-mer peptides (pins) with rabbit serum. The test is classed as binding. The note with it: a listed pin number means recognized. As for the experimental part:
as §1, §2, §3, §4, §5, §6, §7, §8

The test system of test [6] is Antibody to CS4. Put plainly: ELISA of 8-mer peptides (pins) with rabbit serum. The test is classed as binding. To be noted: a listed pin number means recognized. As for the experimental part:
as §1, §2, §3, §4, §5, §6, §7, §8

Test [7] relates to Antibody to CS2. Put plainly: ELISA of 8-mer peptides (pins) with rabbit serum. The test is classed as binding. To be noted: a listed pin number means recognized. As for the experimental part: as §1, §2, §3, §4, §5, §6, §7, §8
The subject of test [8] is Antibody to CFA/I. Briefly: ELISA of 8-mer peptides (pins) with rabbit serum. The test is classed as binding. As for the experimental part: as §1, §2, §3, §4, §5, §6, §7, §8
The subject of test [9] is whole bacteria, CF CS2. Briefly: Agglutination of whole bacteria by serum of immunized rabbits. The test is classed as cell-based, E. coli. The note with it: two rabbits immunized per preparation.
The test system of test [10] is whole bacteria, CF CS1. The test is described as above. The format is cell-based, E. coli. To be noted: two rabbits immunized per preparation.
The subject of test [11] is whole bacteria, CF CFA/1. The test is described as above. The test is classed as cell-based, E. coli. The note with it: two rabbits immunized per preparation.
Test [12] concerns whole bacteria, CF 0166. The description is as above. The format is cell-based, E. coli. The note with it: two rabbits immunized per preparation.
Test [13] deals with whole bacteria, CF CS17. Described as above. The format is cell-based, E. coli. To be noted: two rabbits immunized per preparation.
The subject of test [14] is CS1. Briefly: Western blot of immune serum with denatured protein. The format is binding, E. coli. The note with it: 4 strong reaction, rabbit serum. As for the experimental part:
(§9) Rabbits were bled, then immunized on day 0 with a composition containing 280 μg peptide/BSA conjugate in Freund's complete adjuvant. On day 21, the animals were boosted with 140 μg peptide/BSA conjugate in Freund's incomplete adjuvant. Blood was drawn on day 32. The interaction of antibodies raised against the specific antigens of the denatured proteins of the various strains was studied by comparing interaction of serum from the animals obtained on day 0 with response on to serum from the animals obtained on day 32 by Western blot. In all instances, the Western blot was negative for reaction with serum obtained on day 0. The Western blot data on interaction of immune serum collected on day 32 with the denatured proteins is given below with 0 being no reaction and 4 being a strong reaction:
(§10) Rabbits were given a composition containing 400 μg peptide of the formula: […] (SEQ ID NO:1) in complete Freund's adjuvant. The response was evaluated as in Example 2:
(§11) The same study was done comparing antibodies raised to denatured proteins of PCF 0166.
(§12) Effect of antibody raised to whole CS2 protein was studied in the manner of example 5.

For test [15], the system named is 0166. The test is described as above. The format is binding, E. coli. The note with it: 4 strong reaction, rabbit serum. As for the experimental part:
as §9, §10, §11, §12

Test [16] relates to CS4. Described as above. The test is classed as binding, E. coli. To be noted: 4 strong reaction, rabbit serum. As for the experimental part: as §9, §10, §11, §12
In test [17] the test system is CS17. Described as above. The test is classed as binding, E. coli. To be noted: 4 strong reaction, rabbit serum. As for the experimental part: as §9, §10, §11, §12
For test [18], the system named is whole bacteria, CF CS4. Put plainly: Agglutination of whole bacteria by serum of immunized rabbits. The note with it: two rabbits immunized per preparation. The format is cell-based, E. coli.
[19] abbreviates: rabbit 1082, a listed pin number means recognized.
Where [20] appears, read: rabbit 1081, a listed pin number means recognized.
The mark [21] stands for this setting: rabbit 1079, a listed pin number means recognized.
Where [22] appears, read: rabbit 1083, a listed pin number means recognized.
Setting [23] is: rabbit 934, a listed pin number means recognized.
Setting [24] is: rabbit 1078, a listed pin number means recognized.

As to “ASVDPTID (listed as Escherichia coli) [compound 9]”, the “interaction of peptides with the antibodies raised to the consensus peptide” value (“interaction of peptides” for short) in test [1] is “more reliably interactive”. In addition, in test [1], the “reactivity of 8-mer peptides with antibodies from the rabbits” value (“reactivity of 8-mer peptides” below) was “most reactive”. Besides, the “pins (8-aa peptide) recognized by serum” value in [2] (setting [19]) is reported as 9; in test [3] (Antibody to CS17, rabbit 1084) it was 9; in test [4] (setting [20]), 9; in test [5] (Antibody to CS1, rabbit 1090), 9; in test [6] (Antibody to CS4, rabbit 938) it was 9; in test [7] (Antibody to CS2, rabbit 1076), 9. For the same sequence, the “pins (8-aa peptide) recognized by serum” value in [7] (Antibody to CS2, rabbit 1077) is recorded as 9.
In the case of “VDPTIDLL (listed as Escherichia coli) [compound 11]”, in test [1], the “interaction of peptides” value is on record as “more reliably interactive”. Further, the “reactivity of 8-mer peptides” value in test [1] is “most reactive”. The “pins (8-aa peptide) recognized by serum” value is 11 in test [2] (setting [19]); 11 in [4] (setting [20]); 11 in test [5] (Antibody to CS1, rabbit 1089); 11 in test [5] (Antibody to CS1, rabbit 1090); 11 in test [8] (setting [21]); 11 in [6] (Antibody to CS4, rabbit 938). Moreover, the “pins (8-aa peptide) recognized by serum” value in test [6] (Antibody to CS4, rabbit 940) was determined as 11; in test [7] (Antibody to CS2, rabbit 1076) it was 11; in test [7] (Antibody to CS2, rabbit 1077) it was 11.
Turning to “KNITVTAS (listed as Escherichia coli) [compound 3]”, the “reactivity of 8-mer peptides” value in test [1] is “most reactive”. Besides, the “pins (8-aa peptide) recognized by serum” value amounted to 3 in test [2] (setting [22]); 3 in test [3] (Antibody to CS17, rabbit 1080); 3 in test [5] (Antibody to CS1, rabbit 1089); 3 in [6] (Antibody to CS4, rabbit 940).
“PTIDLLQA (listed as Escherichia coli) [compound 13]”: the “interaction of peptides” value in [1] is “more reliably interactive”. For the same sequence, the “reactivity of 8-mer peptides” value in [1] is on record as “most reactive”. Besides, the “pins (8-aa peptide) recognized by serum” value amounted to 13 in test [2] (setting [19]); 13 in [2] (setting [22]); 13 in [4] (setting [23]); 13 in test [4] (setting [20]); 13 in [5] (Antibody to CS1, rabbit 1089); 13 in test [5] (Antibody to CS1, rabbit 1090). Also, the “pins (8-aa peptide) recognized by serum” value is 13 in test [8] (setting [24]); 13 in test [8] (setting [21]); 13 in test [6] (Antibody to CS4, rabbit 938); 13 in [6] (Antibody to CS4, rabbit 940).
Regarding “TIDLLQAD (listed as Escherichia coli) [compound 14]”, the “reactivity of 8-mer peptides” value in [1] is given as “most reactive”. Also, the “pins (8-aa peptide) recognized by serum” value is on record as 14 in [2] (setting [19]); 14 in test [4] (setting [23]); 14 in test [8] (setting [24]); 14 in test [8] (setting [21]); 14 in [6] (Antibody to CS4, rabbit 940).
As to “VEKNITVTASVDPTIDLLQADGSALPSAVALTYSPA (listed as Escherichia coli) [SEQ ID NO:1, 36 amino acid consensus peptide of the CS4-CFA/I family]”, the “agglutination of whole bacteria by serum” value in [9], in [10], in [11], in test [12], in test [13] and in [18] was 0/2 throughout. In addition, the “Western blot reaction of immune serum with denatured protein” value (from here on “Western blot reaction of immune serum”) in test [14] (titer 1:50, 0 no reaction) stood at 4; in test [14] (titer 1:500, 0 no reaction), 4; in [14] (titer 1:5000, 0 no reaction), 2; in [14] (titer 1:50000, 0 no reaction), 1; in test [15] (titer 1:50, 0 no reaction), 4; in test [15] (titer 1:500, 0 no reaction), 2. Also, the “Western blot reaction of immune serum” value worked out at 2 in test [16] (titer 1:50, 0 no reaction); 0 in test [16] (titer 1:500, 0 no reaction); 0 in [16] (titer 1:5000, 0 no reaction); 0 in test [16] (titer 1:50000, 0 no reaction); 2 in test [17] (titer 1:50, 0 no reaction); 0 in [17] (titer 1:500, 0 no reaction). The “Western blot reaction of immune serum” value is reported as 0 in [17] (titer 1:5000, 0 no reaction) and 0 in test [17] (titer 1:50000, 0 no reaction).
